# Experimental data from US8163779B2, “Glucokinase activators” (Takeda San Diego, Inc., priority 2006, dated 2012).
# Molecular target: T1, glucokinase (GK) (Homo sapiens, UniProt P35557)
# T1 construct: I.D. No. 1 corresponds to residues 12-465 of glucokinase; made in house; host or cells: E. coli DH10b-T1r
# T1 sequence (P35557 with tags, fused parts or gaps isoform P35557-2): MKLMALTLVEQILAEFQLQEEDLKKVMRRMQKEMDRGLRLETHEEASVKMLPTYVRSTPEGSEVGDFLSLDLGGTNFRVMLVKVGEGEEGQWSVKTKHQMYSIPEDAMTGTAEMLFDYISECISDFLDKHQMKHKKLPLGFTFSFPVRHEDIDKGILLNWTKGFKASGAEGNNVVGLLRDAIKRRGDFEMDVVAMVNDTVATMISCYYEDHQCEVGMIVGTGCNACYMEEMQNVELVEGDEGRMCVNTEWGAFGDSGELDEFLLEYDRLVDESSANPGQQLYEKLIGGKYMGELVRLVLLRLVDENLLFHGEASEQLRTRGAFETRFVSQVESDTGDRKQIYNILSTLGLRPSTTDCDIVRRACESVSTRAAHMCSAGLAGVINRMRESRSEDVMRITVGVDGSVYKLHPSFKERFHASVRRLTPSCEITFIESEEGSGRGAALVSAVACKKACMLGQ
# Test: enzymatic glucokinase activity assay (ATP consumption, KinaseGlo luminescence)
# Type: biochemical
# Conditions: recombinant GK residues 12-465; 5 μM ATP, 5 mM Glucose; Kact = concentration that displays 50% of the maximal increase in GK activity; read-out: pKact
# Description: The activity of compounds as glucokinase activators may be assayed in vitro, in vivo or in a cell line. Provided below is an enzymatic glucokinase activity assay.
# Purified glucokinase may be obtained as follows. […] SEQ.
# The expression of recombinant glucokinase protein may be carried out by transformation and growth of DH10b-T1r E. coli cells incorporating the (pFLAG-CTC) plasmid in LB media. Protein expression can be induced in this system by the addition of IPTG to the culture medium.
# Recombinant protein may be isolated from cellular extracts by passage over Sepharose Q Fast Flow resin (Pharmacia). This partially purified GK extract may then be further purified by a second passage over Poros HQ 10 (Applied Biosystems). The purity of GK may be determined on denaturing SDS-PAGE gel. Purified GK may then be concentrated to a final concentration of 20.0 mg/ml. After flash freezing in liquid nitrogen, the proteins can be stored at −78° C. in a buffer containing 25 mM TRIS-HCl pH 7.6, 50 mM NaCl, and 0.5 mM TCEP.
# The activation properties of compounds for GK may be determined using a black 384-well-plate format under the following reaction conditions: 25 mM Hepes pH 7.2, 25 mM NaCl, 10 mM MgCl2, 0.01% Brij35, 1 mM DTT, 5 μM ATP, 5 mM Glucose 2% DMSO. The amount of ATP consumed may be determined quantitatively by addition of equal volume of luciferase reagent (luciferase+beetle luciferin—KinaseGlo Luminescent Kinase Assay kit from Promega). The luminescence intensity may be measured by using the Analyst HT from LJL Biosystems.
# The reaction mixture may then be incubated at room temperature for 60 min, and quenched and developed by addition of 10 μL of luciferase reagent. Luminescence intensities of the resulting reaction mixtures may be measured after a 10 min incubation at room temperature. The luminescence intensity may be measured by using the Analyst HT from LJL Biosystems.
# pKact values may be calculated by non-linear curve fitting of the compound concentrations and luminescence intensities to a standard inhibition/activation equation.
row,Compound,EC50 [µM]
1,"CC#CCC(C(=O)Nc1ncc(Cl)s1)n1ccc(S(C)(=O)=O)cc1=O (stereo not shown) [Example 26, N-(5-chlorothiazol-2-yl)-2-(4-(methylsulfonyl)-2-oxopyridin-1(2H)-yl)hex-4-ynamide]",> 15.8
2,"COc1ccc(CC(C(=O)Nc2nccs2)n2c(C)cc(S(=O)(=O)C3CCCC3)cc2=O)cc1 (stereo not shown) [Example 27, 2-(4-(cyclopentylsulfonyl)-6-methyl-2-oxopyridin-1(2H)-yl)-3-(4-methoxyphenyl)-N-(thiazol-2-yl)propanamide]",> 15.8
3,"Cc1cc(S(=O)(=O)C2CCCC2)cc(=O)n1C(Cc1ccc(O)cc1)C(=O)Nc1nccs1 (stereo not shown) [Example 28, 2-(4-(cyclopentylsulfonyl)-6-methyl-2-oxopyridin-1(2H)-yl)-3-(4-hydroxyphenyl)-N-(thiazol-2-yl)propanamide]",> 15.8
4,"O=C(Nc1ncc(Cl)s1)[C@@H](CC1CCOCC1)n1ccc(S(=O)(=O)C2CC2)cc1=O [Example 29, (R)-N-(5-chlorothiazol-2-yl)-2-(4-(cyclopropylsulfonyl)-2-oxopyridin-1(2H)-yl)-3-(tetrahydro-2H-pyran-4-yl)propanamide]",> 15.8
5,"O=C(Nc1ncc(Cl)s1)[C@H](CC1CCOCC1)n1ccc(S(=O)(=O)C2CC2)cc1=O [Example 30, (S)-N-(5-chlorothiazol-2-yl)-2-(4-(cyclopropylsulfonyl)-2-oxopyridin-1(2H)-yl)-3-(tetrahydro-2H-pyran-4-yl)propanamide]",< 1.58
6,"O=C(Nc1ncc(Cl)s1)[C@@H](CC1CCOCC1)n1ccc(S(=O)(=O)C2CCCC2)cc1=O [Example 31, (R)-N-(5-chlorothiazol-2-yl)-2-(4-(cyclopentylsulfonyl)-2-oxopyridin-1(2H)-yl)-3-(tetrahydro-2H-pyran-4-yl)propanamide]",> 15.8
7,"O=C(Nc1ncc(Cl)s1)[C@H](CC1CCOCC1)n1ccc(S(=O)(=O)C2CCCC2)cc1=O [Example 32, (S)-N-(5-chlorothiazol-2-yl)-2-(4-(cyclopentylsulfonyl)-2-oxopyridin-1(2H)-yl)-3-(tetrahydro-2H-pyran-4-yl)propanamide]",< 1.58
8,"O=C(Nc1ncc(F)s1)[C@@H](CC1CCOCC1)n1ccc(S(=O)(=O)C2CCCC2)cc1=O [Example 33, (R)-2-(4-(cyclopentylsulfonyl)-2-oxopyridin-1(2H)-yl)-N-(5-fluorothiazol-2-yl)-3-(tetrahydro-2H-pyran-4-yl)propanamide]",1.58 to 15.8
9,"O=C(Nc1ncc(F)s1)[C@H](CC1CCOCC1)n1ccc(S(=O)(=O)C2CCCC2)cc1=O [Example 34, (S)-2-(4-(cyclopentylsulfonyl)-2-oxopyridin-1(2H)-yl)-N-(5-fluorothiazol-2-yl)-3-(tetrahydro-2H-pyran-4-yl)propanamide]",< 1.58
10,"O=C(Nc1ncc(F)s1)[C@H](CC1CCOCC1)n1ccc(S(=O)(=O)C2CC2)cc1=O [Example 35, (S)-2-(4-(cyclopropylsulfonyl)-2-oxopyridin-1(2H)-yl)-N-(5-fluorothiazol-2-yl)-3-(tetrahydro-2H-pyran-4-yl)propanamide]",< 1.58
11,"O=C(Nc1ncc(F)s1)[C@@H](CC1CCOCC1)n1ccc(S(=O)(=O)C2CC2)cc1=O [Example 36, (R)-2-(4-(cyclopropylsulfonyl)-2-oxopyridin-1(2H)-yl)-N-(5-fluorothiazol-2-yl)-3-(tetrahydro-2H-pyran-4-yl)propanamide]",> 15.8

# The remaining lines, values ahead:
row,EC50 [µM],Compound
1,1.58 to 15.8,"Cc1cc(S(=O)(=O)C2CCCC2)cc(=O)n1[C@H](CC1CCOCC1)C(=O)Nc1ncc(Cl)s1 [Example 37, (R)-N-(5-chlorothiazol-2-yl)-2-(4-(cyclopentylsulfonyl)-6-methyl-2-oxopyridin-1(2H)-yl)-3-(tetrahydro-2H-pyran-4-yl)propanamide]"
2,< 1.58,"Cc1cc(S(=O)(=O)C2CCCC2)cc(=O)n1[C@@H](CC1CCOCC1)C(=O)Nc1ncc(Cl)s1 [Example 38, (S)-N-(5-chlorothiazol-2-yl)-2-(4-(cyclopentylsulfonyl)-6-methyl-2-oxopyridin-1(2H)-yl)-3-(tetrahydro-2H-pyran-4-yl)propanamide]"
3,> 15.8,"Cc1cc(S(=O)(=O)C2CCCC2)cc(=O)n1[C@H](CC1CCOCC1)C(=O)Nc1ncc(F)s1 [Example 39, (R)-2-(4-(cyclopentylsulfonyl)-6-methyl-2-oxopyridin-1(2H)-yl)-N-(5-fluorothiazol-2-yl)-3-(tetrahydro-2H-pyran-4-yl)propanamide]"
4,< 1.58,"Cc1cc(S(=O)(=O)C2CCCC2)cc(=O)n1[C@@H](CC1CCOCC1)C(=O)Nc1ncc(F)s1 [Example 40, (S)-2-(4-(cyclopentylsulfonyl)-6-methyl-2-oxopyridin-1(2H)-yl)-N-(5-fluorothiazol-2-yl)-3-(tetrahydro-2H-pyran-4-yl)propanamide]"
5,> 15.8,"O=C(Nc1ccc(Cl)cn1)[C@@H](CC1CCOCC1)n1ccc(S(=O)(=O)C2CCCC2)cc1=O [Example 41, (R)-N-(5-chloropyridin-2-yl)-2-(4-(cyclopentylsulfonyl)-2-oxopyridin-1(2H)-yl)-3-(tetrahydro-2H-pyran-4-yl)propanamide]"
6,< 1.58,"O=C(Nc1ccc(Cl)cn1)[C@H](CC1CCOCC1)n1ccc(S(=O)(=O)C2CCCC2)cc1=O [Example 42, (S)-N-(5-chloropyridin-2-yl)-2-(4-(cyclopentylsulfonyl)-2-oxopyridin-1(2H)-yl)-3-(tetrahydro-2H-pyran-4-yl)propanamide]"
7,1.58 to 15.8,"Cc1ccc(S(=O)(=O)c2cc(C)n(C(CC(C)(C)C)C(=O)Nc3ncc(F)s3)c(=O)c2)cc1 (stereo not shown) [Example 43, N-(5-fluorothiazol-2-yl)-4,4-dimethyl-2-(6-methyl-2-oxo-4-tosylpyridin-1(2H)-yl)pentanamide]"
8,< 1.58,"COC(=O)c1cnc(NC(=O)[C@H](CC2CCOCC2)n2ccc(S(=O)(=O)C3CCCC3)cc2=O)s1 [Example 45, (5)-methyl 2-(2-(4-(cyclopentylsulfonyl)-2-oxopyridin-1(2H)-yl)-3-(tetrahydro-2H-pyran-4-yl)propanamido)thiazole-5-carboxylate]"
9,< 1.58,"NC(=O)c1ccc(NC(=O)[C@H](CC2CCOCC2)n2ccc(S(=O)(=O)C3CCCC3)cc2=O)nc1 [Example 46, (S)-6-(2-(4-(cyclopentylsulfonyl)-2-oxopyridin-1(2H)-yl)-3-(tetrahydro-2H-pyran-4-yl)propanamido)nicotinamide]"
10,> 15.8,"NC(=O)c1ccc(NC(=O)[C@@H](CC2CCOCC2)n2ccc(S(=O)(=O)C3CCCC3)cc2=O)nc1 [Example 47, (R)-6-(2-(4-(cyclopentylsulfonyl)-2-oxopyridin-1(2H)-yl)-3-(tetrahydro-2H-pyran-4-yl)propanamido)nicotinamide]"
11,1.58 to 15.8,"COc1ccc2nc(NC(=O)[C@@H](CC3CCOCC3)n3ccc(S(=O)(=O)C4CC4)cc3=O)sc2n1 [Example 48, (R)-2-(4-(cyclopropylsulfonyl)-2-oxopyridin-1(2H)-yl)-N-(5-methoxythiazolo[5,4-b]pyridin-2-yl)-3-(tetrahydro-2H-pyran-4-yl)propanamide]"
12,< 1.58,"COc1ccc2nc(NC(=O)[C@H](CC3CCOCC3)n3ccc(S(=O)(=O)C4CC4)cc3=O)sc2n1 [Example 49, (S)-2-(4-(cyclopropylsulfonyl)-2-oxopyridin-1(2H)-yl)-N-(5-methoxythiazolo[5,4-b]pyridin-2-yl)-3-(tetrahydro-2H-pyran-4-yl)propanamide]"
13,< 1.58,"O=C(Nc1ncc(F)s1)C(CC1CCOCC1)n1ccc(S(=O)(=O)c2ccccn2)cc1=O (stereo not shown) [Example 50, N-(5-fluorothiazol-2-yl)-2-(2-oxo-4-(pyridin-2-ylsulfonyl)pyridin-1(2H)-yl)-3-(tetrahydro-2H-pyran-4-yl)propanamide]"
14,> 15.8,"O=C(Nc1nc2cccnc2s1)[C@@H](CC1CCOCC1)n1ccc(S(=O)(=O)C2CC2)cc1=O [Example 51, (R)-2-(4-(cyclopropylsulfonyl)-2-oxopyridin-1(2H)-yl)-3-(tetrahydro-2H-pyran-4-yl)-N-(thiazolo[5,4-b]pyridin-2-yl)propanamide]"
